# Measurements reported in the kinase profiling compilation of Christmann-Franck et al. (2016).
# What was measured:
# Test in all cases: KINOMEscan competition binding
# Conditions in all cases: compound 10.0 µM
# CDC42BPB (human) = CDC42BPB (human) (UniProt Q9Y5S2)
# BMPR1B (human) = BMPR1B (human) (UniProt O00238)
# PRKD2 (human) = PRKD2 (human) (UniProt Q9BZL6)
# CAMK4 (human) = CAMK4 (human) (UniProt Q16566)
# CSNK1A1L (human) = CSNK1A1L (human) (UniProt Q8N752)
# MAPK13 (human) = MAPK13 (human) (UniProt O15264)
# SRPK3 (human) = SRPK3 (human) (UniProt Q9UPE1)
# EIF2AK2 (human) = EIF2AK2 (human) (UniProt P19525)
# EPHA3 (human) = EPHA3 (human) (UniProt P29320)
# EPHA1 (human) = EPHA1 (human) (UniProt P21709)
# CSNK2A2 (human) = CSNK2A2 (human) (UniProt P19784)
# PRKCD (human) = PRKCD (human) (UniProt Q05655)
# [1] = target: TYK2 JH1 catalytic (human) (UniProt P29597)
# ACVR1 (human) = ACVR1 (human) (UniProt Q04771)
# PRKAA1 (human) = PRKAA1 (human) (UniProt Q13131)
# MAP4K4 (human) = MAP4K4 (human) (UniProt O95819)
# CAMKK1 (human) = CAMKK1 (human) (UniProt Q8N5S9)
# PRKCQ (human) = PRKCQ (human) (UniProt Q04759)
# RPS6KA1 KD2 (human) = RPS6KA1 KD2 (human) (UniProt Q15418)
# PHKG1 (human) = PHKG1 (human) (UniProt Q16816)
# EPHB4 (human) = EPHB4 (human) (UniProt P54760)
# TTK (human) = TTK (human) (UniProt P33981)
# TNK2 (human) = TNK2 (human) (UniProt Q07912)
# NLK (human) = NLK (human) (UniProt Q9UBE8)
# CHUK (human) = CHUK (human) (UniProt O15111)
# TAOK3 (human) = TAOK3 (human) (UniProt Q9H2K8)
# TSSK1B (human) = TSSK1B (human) (UniProt Q9BXA7)
# TNNI3K (human) = TNNI3K (human) (UniProt Q59H18)
# SIK1 (human) = SIK1 (human) (UniProt P57059)
# CAMK1G (human) = CAMK1G (human) (UniProt Q96NX5)
# LTK (human) = LTK (human) (UniProt P29376)
# TESK1 (human) = TESK1 (human) (UniProt Q15569)
# TLK1 (human) = TLK1 (human) (UniProt Q9UKI8)
# [2] = system: KIT (human), P10721 [V559D]
# SRMS (human) = SRMS (human) (UniProt Q9H3Y6)
# RPS6KA1 KD1 (human) = RPS6KA1 KD1 (human) (UniProt Q15418)
# RAF1 (human) = RAF1 (human) (UniProt P04049)
# CDC42BPG (human) = CDC42BPG (human) (UniProt Q6DT37)
# PRKG2 (human) = PRKG2 (human) (UniProt Q13237)
# PAK2 (human) = PAK2 (human) (UniProt Q13177)
# Sequence of NLK (human) (Q9UBE8 whole entry, looked up): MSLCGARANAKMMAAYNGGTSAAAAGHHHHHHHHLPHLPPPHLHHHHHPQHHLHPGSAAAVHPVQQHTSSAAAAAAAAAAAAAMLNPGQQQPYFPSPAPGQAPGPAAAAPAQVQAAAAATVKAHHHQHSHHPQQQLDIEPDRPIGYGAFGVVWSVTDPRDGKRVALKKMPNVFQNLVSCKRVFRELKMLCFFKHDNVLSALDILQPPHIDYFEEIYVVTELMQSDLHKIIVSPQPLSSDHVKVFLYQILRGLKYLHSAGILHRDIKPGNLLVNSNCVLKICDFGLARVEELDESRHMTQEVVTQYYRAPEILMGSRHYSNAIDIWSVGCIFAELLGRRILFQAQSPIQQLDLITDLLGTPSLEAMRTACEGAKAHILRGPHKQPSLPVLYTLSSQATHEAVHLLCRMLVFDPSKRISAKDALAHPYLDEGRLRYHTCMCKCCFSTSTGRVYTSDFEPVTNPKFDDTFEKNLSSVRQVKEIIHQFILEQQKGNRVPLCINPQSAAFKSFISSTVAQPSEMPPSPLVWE
# Sequence of TTK (human) (P33981 whole entry, looked up): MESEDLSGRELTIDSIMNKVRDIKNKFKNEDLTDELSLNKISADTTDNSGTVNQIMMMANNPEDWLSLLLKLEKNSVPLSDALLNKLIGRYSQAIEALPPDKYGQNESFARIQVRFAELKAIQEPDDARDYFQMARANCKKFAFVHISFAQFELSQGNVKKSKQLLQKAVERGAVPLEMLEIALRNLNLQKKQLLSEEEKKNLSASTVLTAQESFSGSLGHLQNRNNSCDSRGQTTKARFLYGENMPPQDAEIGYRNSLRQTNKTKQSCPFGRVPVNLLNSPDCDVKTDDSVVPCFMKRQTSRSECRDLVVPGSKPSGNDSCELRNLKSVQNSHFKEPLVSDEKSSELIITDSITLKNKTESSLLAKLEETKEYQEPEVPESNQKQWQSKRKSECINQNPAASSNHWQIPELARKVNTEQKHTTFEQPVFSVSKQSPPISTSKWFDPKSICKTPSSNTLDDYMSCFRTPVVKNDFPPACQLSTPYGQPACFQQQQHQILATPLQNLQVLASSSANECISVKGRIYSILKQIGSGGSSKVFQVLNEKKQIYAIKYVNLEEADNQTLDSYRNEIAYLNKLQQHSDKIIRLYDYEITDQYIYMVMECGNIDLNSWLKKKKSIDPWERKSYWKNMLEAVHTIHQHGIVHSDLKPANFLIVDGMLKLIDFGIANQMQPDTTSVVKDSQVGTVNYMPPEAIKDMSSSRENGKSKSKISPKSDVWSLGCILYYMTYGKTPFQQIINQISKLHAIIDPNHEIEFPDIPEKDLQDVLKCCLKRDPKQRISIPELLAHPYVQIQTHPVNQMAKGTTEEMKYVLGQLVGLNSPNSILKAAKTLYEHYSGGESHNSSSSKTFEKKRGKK
# Sequence of EPHA3 (human) (P29320 whole entry, looked up): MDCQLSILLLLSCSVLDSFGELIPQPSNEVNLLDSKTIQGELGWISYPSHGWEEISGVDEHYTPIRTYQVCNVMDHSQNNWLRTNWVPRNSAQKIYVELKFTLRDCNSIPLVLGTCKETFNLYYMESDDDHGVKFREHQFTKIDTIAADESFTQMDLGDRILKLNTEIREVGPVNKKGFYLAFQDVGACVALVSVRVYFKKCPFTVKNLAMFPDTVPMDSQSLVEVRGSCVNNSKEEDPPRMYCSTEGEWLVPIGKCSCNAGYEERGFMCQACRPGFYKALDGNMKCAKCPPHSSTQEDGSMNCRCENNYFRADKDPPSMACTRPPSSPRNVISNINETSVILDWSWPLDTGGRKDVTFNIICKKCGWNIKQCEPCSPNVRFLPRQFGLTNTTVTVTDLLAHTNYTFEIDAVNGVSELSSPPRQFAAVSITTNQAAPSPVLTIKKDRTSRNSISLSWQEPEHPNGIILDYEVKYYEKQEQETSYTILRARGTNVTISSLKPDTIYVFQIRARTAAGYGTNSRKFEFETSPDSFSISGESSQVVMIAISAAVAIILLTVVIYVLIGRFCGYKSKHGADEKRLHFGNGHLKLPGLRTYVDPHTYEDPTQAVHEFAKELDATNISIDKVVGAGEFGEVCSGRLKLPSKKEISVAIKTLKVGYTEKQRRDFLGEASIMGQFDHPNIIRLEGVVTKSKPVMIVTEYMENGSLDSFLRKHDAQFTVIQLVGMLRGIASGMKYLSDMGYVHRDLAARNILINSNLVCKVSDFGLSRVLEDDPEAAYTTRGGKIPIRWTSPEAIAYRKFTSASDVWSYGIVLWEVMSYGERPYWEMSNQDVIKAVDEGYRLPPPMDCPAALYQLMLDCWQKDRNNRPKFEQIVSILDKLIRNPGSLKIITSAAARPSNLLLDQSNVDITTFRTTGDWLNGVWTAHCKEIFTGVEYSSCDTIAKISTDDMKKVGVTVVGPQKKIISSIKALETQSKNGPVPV
# Sequence of SRMS (human) (Q9H3Y6 whole entry, looked up): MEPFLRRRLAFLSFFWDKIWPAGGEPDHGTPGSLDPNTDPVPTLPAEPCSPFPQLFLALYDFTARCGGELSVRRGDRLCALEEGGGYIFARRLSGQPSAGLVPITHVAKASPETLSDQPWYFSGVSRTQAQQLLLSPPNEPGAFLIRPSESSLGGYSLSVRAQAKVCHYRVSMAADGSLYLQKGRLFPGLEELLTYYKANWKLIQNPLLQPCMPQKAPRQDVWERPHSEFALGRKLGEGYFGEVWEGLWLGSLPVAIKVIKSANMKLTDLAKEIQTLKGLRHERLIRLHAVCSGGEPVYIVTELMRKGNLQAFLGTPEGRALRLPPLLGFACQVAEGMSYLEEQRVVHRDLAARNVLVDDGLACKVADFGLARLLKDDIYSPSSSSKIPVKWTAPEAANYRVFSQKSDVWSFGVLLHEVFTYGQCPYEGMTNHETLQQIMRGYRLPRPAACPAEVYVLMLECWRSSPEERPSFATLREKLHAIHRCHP
# Sequence of EIF2AK2 (human) (P19525 whole entry, looked up): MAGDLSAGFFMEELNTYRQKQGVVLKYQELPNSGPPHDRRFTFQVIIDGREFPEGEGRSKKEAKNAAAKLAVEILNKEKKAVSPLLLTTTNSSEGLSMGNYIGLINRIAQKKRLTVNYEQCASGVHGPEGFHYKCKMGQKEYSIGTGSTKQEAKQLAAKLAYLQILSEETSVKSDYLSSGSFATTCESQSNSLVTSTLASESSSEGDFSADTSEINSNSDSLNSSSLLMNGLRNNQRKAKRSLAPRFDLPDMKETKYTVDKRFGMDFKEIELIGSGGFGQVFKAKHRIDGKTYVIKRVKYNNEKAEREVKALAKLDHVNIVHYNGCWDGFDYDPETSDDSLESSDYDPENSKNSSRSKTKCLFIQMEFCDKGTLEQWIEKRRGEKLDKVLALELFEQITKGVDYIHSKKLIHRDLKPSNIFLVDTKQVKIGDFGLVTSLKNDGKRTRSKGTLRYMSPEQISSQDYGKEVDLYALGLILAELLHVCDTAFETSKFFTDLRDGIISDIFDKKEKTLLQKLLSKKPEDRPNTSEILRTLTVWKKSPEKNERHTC
# Sequence of ACVR1 (human) (Q04771 whole entry, looked up): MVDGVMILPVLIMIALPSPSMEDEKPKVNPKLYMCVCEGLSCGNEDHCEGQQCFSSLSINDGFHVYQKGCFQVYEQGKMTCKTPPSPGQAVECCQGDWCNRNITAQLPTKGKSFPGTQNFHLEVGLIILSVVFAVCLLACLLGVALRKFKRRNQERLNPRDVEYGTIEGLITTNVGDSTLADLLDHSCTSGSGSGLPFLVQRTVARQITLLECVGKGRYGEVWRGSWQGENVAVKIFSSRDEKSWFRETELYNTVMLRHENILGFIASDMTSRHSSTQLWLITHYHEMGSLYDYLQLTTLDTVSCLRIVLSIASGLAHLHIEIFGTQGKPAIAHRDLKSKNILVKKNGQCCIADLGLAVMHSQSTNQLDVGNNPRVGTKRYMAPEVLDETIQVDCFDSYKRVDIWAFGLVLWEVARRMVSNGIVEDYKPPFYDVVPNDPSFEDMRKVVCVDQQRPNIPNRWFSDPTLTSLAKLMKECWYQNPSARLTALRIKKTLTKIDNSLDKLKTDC
# Sequence of CHUK (human) (O15111 whole entry, looked up): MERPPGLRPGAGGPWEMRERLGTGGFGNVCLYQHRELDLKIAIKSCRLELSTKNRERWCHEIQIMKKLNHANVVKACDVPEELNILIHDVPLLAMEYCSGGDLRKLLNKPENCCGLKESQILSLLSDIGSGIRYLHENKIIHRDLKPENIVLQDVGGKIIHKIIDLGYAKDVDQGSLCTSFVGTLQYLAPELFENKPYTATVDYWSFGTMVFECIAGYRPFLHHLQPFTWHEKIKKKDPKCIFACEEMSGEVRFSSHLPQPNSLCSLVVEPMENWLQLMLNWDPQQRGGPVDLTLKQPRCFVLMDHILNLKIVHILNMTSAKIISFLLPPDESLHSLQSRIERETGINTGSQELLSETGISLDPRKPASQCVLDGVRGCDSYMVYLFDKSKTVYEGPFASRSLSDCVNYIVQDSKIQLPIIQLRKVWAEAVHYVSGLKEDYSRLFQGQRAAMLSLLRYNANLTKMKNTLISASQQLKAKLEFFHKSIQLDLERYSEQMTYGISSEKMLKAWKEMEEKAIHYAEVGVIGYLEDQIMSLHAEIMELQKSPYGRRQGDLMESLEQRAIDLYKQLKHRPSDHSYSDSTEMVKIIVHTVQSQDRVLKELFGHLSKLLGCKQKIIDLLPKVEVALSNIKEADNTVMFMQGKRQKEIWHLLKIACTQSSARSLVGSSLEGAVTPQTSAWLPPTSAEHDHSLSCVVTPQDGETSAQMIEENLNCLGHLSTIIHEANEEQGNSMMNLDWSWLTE
# Sequence of PHKG1 (human) (Q16816 whole entry, looked up): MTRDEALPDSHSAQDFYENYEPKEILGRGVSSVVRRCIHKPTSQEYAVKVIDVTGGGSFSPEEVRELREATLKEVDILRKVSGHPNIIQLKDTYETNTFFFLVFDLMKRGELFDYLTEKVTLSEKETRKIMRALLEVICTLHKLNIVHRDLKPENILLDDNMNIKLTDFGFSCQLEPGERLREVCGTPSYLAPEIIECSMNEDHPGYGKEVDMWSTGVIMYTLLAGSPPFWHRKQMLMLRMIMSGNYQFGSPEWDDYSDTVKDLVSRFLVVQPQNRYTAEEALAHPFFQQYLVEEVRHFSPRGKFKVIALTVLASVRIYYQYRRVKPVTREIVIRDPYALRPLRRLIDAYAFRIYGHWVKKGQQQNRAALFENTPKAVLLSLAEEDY
Structure (SMILES),"kinase still bound, per cent of control (CDC42BPB (human)) [%]","kinase still bound, per cent of control (BMPR1B (human)) [%]","kinase still bound, per cent of control (PRKD2 (human)) [%]","kinase still bound, per cent of control (CAMK4 (human)) [%]","kinase still bound, per cent of control (CSNK1A1L (human)) [%]","kinase still bound, per cent of control (MAPK13 (human)) [%]","kinase still bound, per cent of control (SRPK3 (human)) [%]","kinase still bound, per cent of control (EIF2AK2 (human)) [%]","kinase still bound, per cent of control (EPHA3 (human)) [%]","kinase still bound, per cent of control (EPHA1 (human)) [%]","kinase still bound, per cent of control (CSNK2A2 (human)) [%]","kinase still bound, per cent of control (PRKCD (human)) [%]","kinase still bound, per cent of control [1] [%]","kinase still bound, per cent of control (ACVR1 (human)) [%]","kinase still bound, per cent of control (PRKAA1 (human)) [%]","kinase still bound, per cent of control (MAP4K4 (human)) [%]","kinase still bound, per cent of control (CAMKK1 (human)) [%]","kinase still bound, per cent of control (PRKCQ (human)) [%]","kinase still bound, per cent of control (RPS6KA1 KD2 (human)) [%]","kinase still bound, per cent of control (PHKG1 (human)) [%]",other results
Nc1ccc(-c2ccc3ncc4ccc(=O)n(-c5cccc(C(F)(F)F)c5)c4c3c2)cn1,96,86,100,100,89,48,95,70,86,93,48,88,85,86,100,71,94,100,100,100,"kinase still bound, per cent of control (EPHB4 (human)): 100%; kinase still bound, per cent of control (TTK (human)): 42%; kinase still bound, per cent of control (TNK2 (human)): 100%; kinase still bound, per cent of control (NLK (human)): 86%; kinase still bound, per cent of control (CHUK (human)): 55%; kinase still bound, per cent of control (TAOK3 (human)): 80%; kinase still bound, per cent of control (TSSK1B (human)): 100%; kinase still bound, per cent of control (TNNI3K (human)): 100%; kinase still bound, per cent of control (SIK1 (human)): 79%; kinase still bound, per cent of control (CAMK1G (human)): 88%; kinase still bound, per cent of control (LTK (human)): 100%; kinase still bound, per cent of control (TESK1 (human)): 94%; kinase still bound, per cent of control (TLK1 (human)): 90%; kinase still bound, per cent of control [2]: 55%; kinase still bound, per cent of control (SRMS (human)): 88%; kinase still bound, per cent of control (RPS6KA1 KD1 (human)): 100%; kinase still bound, per cent of control (RAF1 (human)): 100%; kinase still bound, per cent of control (CDC42BPG (human)): 86%; kinase still bound, per cent of control (PRKG2 (human)): 89%; kinase still bound, per cent of control (PAK2 (human)): 100%"
CCOc1cc2ncc(C#N)c(Nc3ccc(OCc4ccccn4)c(Cl)c3)c2cc1NC(=O)/C=C/CN(C)C,100,81,50,100,98,99,77,100,85,100,72,100,100,100,79,6.2,100,100,85,92,"kinase still bound, per cent of control (EPHB4 (human)): 91%; kinase still bound, per cent of control (TTK (human)): 100%; kinase still bound, per cent of control (TNK2 (human)): 40%; kinase still bound, per cent of control (NLK (human)): 95%; kinase still bound, per cent of control (CHUK (human)): 81%; kinase still bound, per cent of control (TAOK3 (human)): 75%; kinase still bound, per cent of control (TSSK1B (human)): 100%; kinase still bound, per cent of control (TNNI3K (human)): 100%; kinase still bound, per cent of control (SIK1 (human)): 31%; kinase still bound, per cent of control (CAMK1G (human)): 100%; kinase still bound, per cent of control (LTK (human)): 100%; kinase still bound, per cent of control (TESK1 (human)): 100%; kinase still bound, per cent of control (TLK1 (human)): 86%; kinase still bound, per cent of control [2]: 100%; kinase still bound, per cent of control (SRMS (human)): 91%; kinase still bound, per cent of control (RPS6KA1 KD1 (human)): 57%; kinase still bound, per cent of control (RAF1 (human)): 100%; kinase still bound, per cent of control (CDC42BPG (human)): 100%; kinase still bound, per cent of control (PRKG2 (human)): 92%; kinase still bound, per cent of control (PAK2 (human)): 34%"
O=C(NOC[C@H](O)CO)c1ccc(F)c(F)c1Nc1ccc(I)cc1F,83,81,100,100,80,6.1,100,100,100,91,100,100,100,76,100,69,100,100,84,100,"kinase still bound, per cent of control (EPHB4 (human)): 100%; kinase still bound, per cent of control (TTK (human)): 100%; kinase still bound, per cent of control (TNK2 (human)): 72%; kinase still bound, per cent of control (NLK (human)): 77%; kinase still bound, per cent of control (CHUK (human)): 100%; kinase still bound, per cent of control (TAOK3 (human)): 89%; kinase still bound, per cent of control (TSSK1B (human)): 100%; kinase still bound, per cent of control (TNNI3K (human)): 51%; kinase still bound, per cent of control (SIK1 (human)): 100%; kinase still bound, per cent of control (CAMK1G (human)): 100%; kinase still bound, per cent of control (LTK (human)): 100%; kinase still bound, per cent of control (TESK1 (human)): 98%; kinase still bound, per cent of control (TLK1 (human)): 89%; kinase still bound, per cent of control [2]: 74%; kinase still bound, per cent of control (SRMS (human)): 95%; kinase still bound, per cent of control (RPS6KA1 KD1 (human)): 100%; kinase still bound, per cent of control (RAF1 (human)): 99%; kinase still bound, per cent of control (CDC42BPG (human)): 85%; kinase still bound, per cent of control (PRKG2 (human)): 86%; kinase still bound, per cent of control (PAK2 (human)): 93%"
